Like-named read-outs stand apart in the source and are kept apart here.
Columns and labels:
BRD4-BD2 = BRD4-BD2 (Homo sapiens (Human), UniProt O60885); experiment: competitive TR-FRET assay, BET-BD with acetylated peptide ligand; assay type: binding
Description: (§1) Inhibitor potency was determined using a competitive TR-FRET assay as detailed herein, measuring interaction of the respective BET-BD with an acetylated peptide ligand (Table 2).

BRDT = BRDT (Homo sapiens, UniProt Q58F21); experiment: as above; assay type: binding; conditions: read-out: BRDT EC50
Description: as §1

BRD3-BD1 = BRD3-BD1 (Homo sapiens (Human), UniProt Q15059); experiment: as above; assay type: binding
Chain of BRD3-BD1 (Q15059 34-140): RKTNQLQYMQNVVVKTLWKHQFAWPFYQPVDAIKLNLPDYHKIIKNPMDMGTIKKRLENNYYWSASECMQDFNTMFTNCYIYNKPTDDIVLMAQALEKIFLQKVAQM
Description: as §1

BRD2-BD2 = BRD2-BD2 (Homo sapiens (Human), UniProt P25440); experiment: as above; assay type: binding; conditions: for 2.1/2.2: ratio of BRD2-BD1 EC50 to BRD2-BD2 EC50 (selectivity); for [2(1)/2(2)]: Table 4, ratio of EC50
Chain of BRD2-BD2 (P25440 344-453): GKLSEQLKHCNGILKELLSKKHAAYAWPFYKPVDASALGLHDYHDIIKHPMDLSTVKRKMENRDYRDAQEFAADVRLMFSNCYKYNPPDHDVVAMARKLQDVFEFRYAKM
Description: as §1

BRD4-BD1 = BRD4-BD1 (Homo sapiens (Human), UniProt O60885); experiment: as above; assay type: binding
Description: as §1

BRD2-BD1 [1] = molecular target: T1, BRD2-BD1 (Homo sapiens (Human), UniProt P25440); experiment: as above; assay type: binding
Description: as §1
Target sequence in this assay (P25440 74-180): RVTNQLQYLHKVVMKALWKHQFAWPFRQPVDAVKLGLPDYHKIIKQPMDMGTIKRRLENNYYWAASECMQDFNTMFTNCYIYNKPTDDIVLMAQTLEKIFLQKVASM

[2] = system: c-Myc expression in HDMB03 cells; experiment: c-Myc expression inhibition, high content microscopy (HCM); assay type: cell-based, human; conditions: Homo sapiens
HDMB03 cells = experiment: cell viability, CellTiter-Glo; assay type: cell-based, human; conditions: Homo sapiens, HD-MB03, Table 5; read-out: EC50 (μM) HDMB03
Description: Human G3 medulloblastoma or mouse SHH medulloblastoma cells were grown as neurospheres in supplemented neurobasal medium, as previously described (Kawauchi et al., 2012.)
After 7 days of treatment, an equal volume of CellTiter-Glo reagent (G7572, Promega) was added and the luminescence signal was measured using an automated Envision plate reader (Perkin-Elmer). Luminescence data were normalized by log10 transformation prior to calculating the percent inhibition using the following equation:
100*(negative control mean −compound value)/(negative control mean −positive control mean).
High-throughput assay data were analyzed using Robust Interpretation of Screening Experiments (RISE) application written in Pipeline Pilot (Accelrys, v. 8.5) and the R program (R Development Core Team).
Dose-response curves were calculated by regressing the median percent inhibition obtained over triplicate experiments to log 10-transformed concentrations. Non-linear regression was then performed using the R drc package with the four parameter log-logistic function (LL2.4) (Ritz and Streibig, 2009). Curves were fit under three different constraints: (1) all parameters free, (2) high response fixed to 100, (3) low response fixed to 0; and the best fit from these three nested models was selected using the anova.drc function.

BRD2-BD1 [3] = molecular target: T1, BRD2-BD1; experiment: isothermal titration calorimetry analysis of binding; conditions: ITC, BRD2-BD1
Description: b. Isothermal Titration Calorimetry Analysis of Binding to Brd2-BD1 and Brd2-BD2
Binding of compounds to BRD2 was monitored using an ITC200 (Microcal, Piscataway, N.J.). Either Brd2.1 (74-194) or Brd2.2 (348-455) was dialyzed overnight into a solution containing 50 mM HEPES, pH 7.0 and 150 mM NaCl at 15° C. Enzyme concentrations were determined after dialysis by absorbance at 280 nm using a molar extinction coefficient (ε280) of 25,565 M^−1 cm^−1 (2.1) or 16,055 M^−1 cm^−1 (2.2). Enzyme was diluted in dialysis buffer and 39.6 μL was loaded into the syringe. Compounds were dissolved in the same dialysis buffer and loaded in the cell to a volume of 204 μL. Injections were carried out by serial injections of enzyme; first, 1 injection of 1 μL, followed by 19 incremental injections of 2 μL, at 120 second intervals. Data from the first injection was excluded, due to pre-equilibration mixing between the contents of cell and syringe at the syringe tip. Peak areas were integrated, normalized, and then fitted by non-linear regression using the independent sites model in Origin™ (version 2.3.6, Microcal, Piscataway, N.J.).
Target sequence in this assay (P25440 74-194): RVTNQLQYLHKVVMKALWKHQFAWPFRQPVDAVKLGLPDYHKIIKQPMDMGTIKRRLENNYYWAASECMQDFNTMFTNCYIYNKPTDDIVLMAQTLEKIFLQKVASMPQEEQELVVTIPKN

[4] = BRD4-BD2, Table 11 additional modifications, read-out: 4.2 EC50
[5] = BRDT, Table 11 additional modifications
[6] = BRD3-BD1, Table 11 additional modifications, read-out: 3.1 EC50
[7] = BRD2-BD2, Table 11 additional modifications, read-out: 2.2 EC50
[8] = BRD4-BD1, Table 11 additional modifications, read-out: 4.1 EC50
[9] = BRD2-BD1, Table 11 additional modifications, read-out: 2.1 EC50
[10] = HD-MB03, Table 5, read-out: EC50 (μM) Myc-inhibition
[11] = Table 4, read-out: EC50 (μM) BRD2(2)
[12] = Table 4, read-out: EC50 (μM) BRD2(1)
[13] = Table 2, inhibitor potency by TR-FRET

Compound	EC50 (BRD4-BD2; [4]) [µM]	EC50 (BRDT; [5]) [nM]	EC50 (BRD3-BD1; [6]) [nM]	EC50 (BRD2-BD2; [7]) [µM]	2.1/2.2 (BRD2-BD2)	EC50 (BRD4-BD1; [8]) [µM]	EC50 (BRD2-BD1 [1]; [9]) [µM]	further results
COc1ccc(N[C@@H]2C[C@H](C)N(C(C)=O)c3ccc(-c4cccc(NC(C)=O)c4)cc32)cc1 [compound 18]	0.08	2600	1500	0.11	4.8	2.3	1.9	
COc1cccc(N[C@@H]2C[C@H](C)N(C(C)=O)c3ccc(-c4cccc(NC(C)=O)c4)cc32)c1 [compound 21]	0.04	1800	590	0.03	31	1.5	0.93	
CC(=O)Nc1cccc(-c2ccc3c(c2)[C@H](Nc2cccc(OC(F)(F)F)c2)C[C@H](C)N3C(C)=O)c1 [compound 22]	1.9	10000	10000	0.79	33	27	26	
CNCc1ccc(N[C@@H]2C[C@H](C)N(C(C)=O)c3ccc(-c4cccc(NC(C)=O)c4)cc32)cc1 [compound 23]	0.32	2100	710	0.1	23	1.5	2.3	
CC(=O)Nc1cccc(-c2ccc3c(c2)[C@H](NC2CCOCC2)C[C@H](C)N3C(C)=O)c1 [compound 36]	5.4	7000	1400	3	1.1	2.4	3.2	
CC(=O)Nc1cccc(-c2ccc3c(c2)[C@H](NC2CCCCCC2)C[C@H](C)N3C(C)=O)c1 [compound 37]	0.54	2800	1200	0.62	3.9	1.5	2.4	
CC(=O)Nc1cccc(-c2ccc3c(c2)[C@H](NC2CCCC2)C[C@H](C)N3C(C)=O)c1 [compound 38]	2.6	11000	3700	2.4	2.3	6.8	5.5	
CC(=O)Nc1cccc(-c2ccc3c(c2)[C@H](Nc2ccc(F)cc2)C[C@H](C)N3C(C)=O)c1 [compound 39]								EC50 [2, 10]: 0.04 µM; EC50 (HDMB03 cells): 1.68 µM; 4(1)/4(2) (BRD4-BD2; Table 4, ratio of EC50): 63; EC50 (BRD4-BD2; Table 4, read-out: EC50 (μM) BRD4(2)): 0.09 µM; EC50 (BRDT; Table 4): 10000 nM; EC50 (BRD3-BD1; Table 4, read-out: BRD3(1)): 2700 nM; [2(1)/2(2)] (BRD2-BD2): 51; EC50 (BRD2-BD2; [11]): 0.11 µM; EC50 (BRD4-BD1; Table 4, read-out: EC50 (μM) BRD4(1)): 5.7 µM; EC50 (BRD2-BD1 [1]; [12]): 5.6 µM
COc1cc(F)ccc1N[C@@H]1C[C@H](C)N(C(C)=O)c2ccc(-c3cccc(NC(C)=O)c3)cc21 [compound 42]								EC50 [2, 10]: > 10 µM; EC50 (HDMB03 cells): 0.76 µM; EC50 (BRDT; Table 4): > 14000 nM; EC50 (BRD3-BD1; Table 4, read-out: BRD3(1)): > 14000 nM; [2(1)/2(2)] (BRD2-BD2): >100; EC50 (BRD2-BD2; [11]): 0.14 µM; EC50 (BRD2-BD1 [1]; [12]): 13 µM
CC(=O)N1c2ccc(-c3ccco3)cc2[C@H](NC(=O)OC(C)C)C[C@@H]1C [compound 50]								EC50 ([2]; HD-MB03, HDMB03 cells, read-out: c-Myc expression EC50): 0.33 µM; ΔG (BRD2-BD1 [3]): -7.47 kcal/mol; −TΔS (BRD2-BD1 [3]): -0.20 kcal/mol; IC50 (BRD4-BD2; [13]): 2600 nM; IC50 (BRD4-BD1; [13]): 4600 nM
CC(=O)N1c2ccc(-c3coc4ccccc34)cc2[C@H](NC(=O)OC(C)C)C[C@@H]1C [compound 90]	56	14000	3400	3.5	0.84	8.7	11	
CC(=O)N1c2ccc(-c3c[nH]c4ccccc34)cc2[C@H](NC(=O)OC(C)C)C[C@@H]1C [compound 91]	37	4900	1100	1.1	0.032	0.86	1.3	
CC(=O)N1c2ccc(-c3cc4ccccc4[nH]3)cc2[C@H](NC(=O)OC(C)C)C[C@@H]1C [compound 92]	1.3	3000	410	1.4	5.1	1.3	1.7	
CC(=O)Nc1cccc(-c2ccc3c(c2)[C@H](Nc2ccc(N(C)C)cc2)C[C@H](C)N3C(C)=O)c1 [compound 118]	0.21	1600	2100	0.11	10	5.1	3.6	
CC(=O)Nc1cccc(-c2ccc3c(c2)[C@H](Nc2ccc([N+](=O)[O-])cc2)C[C@H](C)N3C(C)=O)c1 [compound 127]	0.06	4100	1200	0.11	17	2.9	2.3	
CC(=O)Nc1cccc(-c2ccc3c(c2)[C@H](Nc2ccc(OC(F)(F)F)cc2)C[C@H](C)N3C(C)=O)c1 [compound 132]	0.54	10000	10000	0.37	16	17	20	
CC(=O)N1c2ccc(-c3cccc(NC(=O)OC(C)(C)C)c3)cc2[C@H](Nc2ccc(Cl)cc2)C[C@@H]1C [compound 134]	0.9	10000	10000	0.59	36	21	21	
